The structures appear in SMILES notation.

Experiment [1] relates to redroot pigweed (Amaranthus retroflexus, AMARE). The experiment in a line: Field trial, post-emergence weed control in corn (Jalisco, Mexico), visual rating. It counts as in vivo. On the procedure: (§1) These trials were conducted under normal corn crop conditions. Trial sites were located in commercially grown corn in the Jalisco (Mexico) area. The corn crop was grown using normal cultural practices for fertilization, seeding, and maintenance to ensure good growth of the crop and the weeds. The trials were conducted using normal research methodology. Trial plots were between 6 to 7 meters (m) wide by 10 m long. All treatments were applied using a randomized complete block trial design with 3 or 4 replications per treatment. The trial sites had naturally occurring populations of weeds. The weed spectrum included, but was not limited to, redroot pigweed (Amaranthus retroflexus, AMARE), bur-cucumber (Sicyos angulatus, SIYAN). Treatments consisted of tank mixes of Tronador™ herbicide and atrazine applied in water. The application volumes were between 250 to 300 liters per hectare (L/ha). All applications were made using precision gas hand sprayers using a 3 m boom using flat fan 8002 nozzles to broadcast the treatments on the weeds.
(§2) The treated plots and control plots were rated blind at various intervals after application. Ratings were based on Percent (%) Visual weed control, where 0 corresponds to no injury and 100 corresponds to complete kill.
(§3) Colby's equation was used to determine the herbicidal effects expected from the mixtures (Colby, S. R. Weeds 1967, 15, 20-22. Calculation of the synergistic and antagonistic response of herbicide combinations).
(§4) The following equation was used to calculate the expected activity of mixtures containing two active ingredients, A and B: Expected=A+B−(A×B/100)
(§5) A=observed efficacy of active ingredient A at the same concentration as used in the mixture.
(§6) B=observed efficacy of active ingredient B at the same concentration as used in the mixture.

The subject of experiment [2] is bur-cucumber (Sicyos angulatus, SIYAN). Described as above. Type of experiment: in vivo. The protocol: as §1, §2, §3, §4, §5, §6
[3] abbreviates: 15 days after application, Atrazine 450 g ai/ha.
[4] abbreviates: 15 days after application, Atrazine 900 g ai/ha.
Setting [5] is: 30 days after application, Atrazine 450 g ai/ha.
Setting [6] is: 30 days after application, Atrazine 900 g ai/ha.
The mark [7] stands for this setting: 45 days after application, Atrazine 450 g ai/ha.
[8] abbreviates: 45 days after application, Atrazine 900 g ai/ha.
The mark [9] stands for this setting: 60 days after application, Atrazine 450 g ai/ha.
[10] abbreviates: 60 days after application, Atrazine 900 g ai/ha.

Regarding `CCNc1nc(Cl)nc(NC(C)C)n1` [Atrazine, 6-chloro-N-ethyl-N′-(1-methylethyl)-1,3,5-triazine-2,4-diamine], the “AMARE Obs - Percent control observed” value in experiment [1] (setting [3]) came out at 35%; in experiment [1] (setting [4]), 46.3%; in experiment [1] (setting [5]) it was 77.5%; in experiment [1] (setting [6]) it was 82.5%; in experiment [1] (setting [7]) it was 91.3%; in experiment [1] (setting [8]) it was 94.8%. For the same compound, the results for the “AMARE Obs - Percent control observed” value in experiment [1] (setting [9]) and in experiment [1] (setting [10]) were 91.3% and 97%, respectively. In addition, the “SIYAN Obs - Percent control observed” value was determined as 27.5% in experiment [2] (setting [3]); 42.5% in experiment [2] (setting [4]); 36.3% in experiment [2] (setting [5]); 60% in experiment [2] (setting [6]); 56.3% in experiment [2] (setting [7]); 66.3% in experiment [2] (setting [8]). Also, the “SIYAN Obs - Percent control observed” value in experiment [2] (setting [9]) came out at 53.8%; in experiment [2] (setting [10]) it was 65%.

The values above are taken from US8445405B2, “Synergistic herbicidal compositions containing aminopyralid, 2,4-dichlorophenoxyacetic acid and atrazine” (Dow AgroSciences, LLC., priority 2010, dated 2013).
